Assay results: US10988477B2 (Merck Patent GmbH, priority 2018, dated 2021)

Experiments:
[1] = target: GCN2 kinase (Homo sapiens, UniProt Q9P2K8); test: GCN2 enzyme inhibition assay (Transcreener ADP2 fluorescence polarization); type: biochemical; conditions: compounds of Formula II; 280 μM ATP, 4 nM GCN2 kinase
Procedure, shortened: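 Human GCN2 (4 nM) preincubated 10 min with compound (0–8 μM) and 200 μM (RS)7 peptide in Tris-HCl pH 7.5, NaCl, MgCl2, DTT. Reaction started with 280 μM ATP, run 1 h at 25 °C. ADP detected by Transcreener fluorescence polarization. IC50 and Ki(app) fitted by tight-binding algorithm.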

[2] = target: intracellular GCN2 (phosphorylation of the GCN2 substrate eIF2α) (Homo sapiens, UniProt Q9P2K8); test: GCN2 cellular inhibition assay (AlphaScreen SureFire P-eIF2α Ser51, borrelidin-treated U2OS cells); type: cell-based; conditions: compounds of Formula II; biomarker assay, phosphorylated eIF2α Ser51 in borrelidin-treated U2OS cells
Sequence of intracellular GCN2 (phosphorylation of the GCN2 substrate eIF2α) (Q9P2K8 whole entry): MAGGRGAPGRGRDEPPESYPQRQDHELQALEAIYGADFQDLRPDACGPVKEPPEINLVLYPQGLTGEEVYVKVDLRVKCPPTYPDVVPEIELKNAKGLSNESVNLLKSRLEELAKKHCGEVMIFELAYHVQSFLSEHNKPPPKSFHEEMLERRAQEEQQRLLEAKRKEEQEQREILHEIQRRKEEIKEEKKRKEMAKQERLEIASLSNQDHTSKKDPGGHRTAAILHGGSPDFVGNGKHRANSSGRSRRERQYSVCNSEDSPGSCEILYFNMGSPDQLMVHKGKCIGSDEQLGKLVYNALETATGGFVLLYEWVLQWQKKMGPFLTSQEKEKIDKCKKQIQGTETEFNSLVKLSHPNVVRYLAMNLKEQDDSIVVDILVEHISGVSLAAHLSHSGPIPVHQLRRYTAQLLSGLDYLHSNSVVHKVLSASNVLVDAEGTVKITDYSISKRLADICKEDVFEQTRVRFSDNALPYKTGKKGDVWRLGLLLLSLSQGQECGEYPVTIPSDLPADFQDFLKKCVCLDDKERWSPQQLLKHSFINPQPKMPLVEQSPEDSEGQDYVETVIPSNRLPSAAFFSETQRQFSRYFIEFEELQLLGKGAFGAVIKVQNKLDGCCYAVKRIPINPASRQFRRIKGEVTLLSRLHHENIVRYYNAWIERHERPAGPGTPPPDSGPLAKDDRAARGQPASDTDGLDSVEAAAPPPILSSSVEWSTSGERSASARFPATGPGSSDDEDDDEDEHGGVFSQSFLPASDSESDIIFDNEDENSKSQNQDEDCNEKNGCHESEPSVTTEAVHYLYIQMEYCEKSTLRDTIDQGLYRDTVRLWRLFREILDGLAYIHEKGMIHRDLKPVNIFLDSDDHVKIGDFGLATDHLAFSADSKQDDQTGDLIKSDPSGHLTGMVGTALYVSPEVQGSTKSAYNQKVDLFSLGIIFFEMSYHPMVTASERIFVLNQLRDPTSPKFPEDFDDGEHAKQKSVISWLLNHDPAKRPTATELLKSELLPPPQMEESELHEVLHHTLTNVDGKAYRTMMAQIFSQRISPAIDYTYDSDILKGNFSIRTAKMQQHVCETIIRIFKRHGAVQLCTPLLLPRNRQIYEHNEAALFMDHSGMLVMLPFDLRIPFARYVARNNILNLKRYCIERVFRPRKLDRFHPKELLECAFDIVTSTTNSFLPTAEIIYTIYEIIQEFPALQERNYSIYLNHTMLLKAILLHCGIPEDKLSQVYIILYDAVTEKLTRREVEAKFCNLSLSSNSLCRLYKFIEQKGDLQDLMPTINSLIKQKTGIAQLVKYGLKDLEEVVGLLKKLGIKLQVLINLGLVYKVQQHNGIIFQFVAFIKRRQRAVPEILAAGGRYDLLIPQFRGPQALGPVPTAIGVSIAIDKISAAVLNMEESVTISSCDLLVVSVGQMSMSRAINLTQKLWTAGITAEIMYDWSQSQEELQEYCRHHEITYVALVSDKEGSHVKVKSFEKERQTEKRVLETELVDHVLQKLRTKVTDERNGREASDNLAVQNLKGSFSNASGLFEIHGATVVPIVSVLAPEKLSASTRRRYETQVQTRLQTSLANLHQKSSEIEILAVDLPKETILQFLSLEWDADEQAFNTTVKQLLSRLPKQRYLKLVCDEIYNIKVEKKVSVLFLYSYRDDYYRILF
Procedure, shortened: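 U2OS cells, adhered overnight, received compounds in 4-fold serial dilutions from 40 μM final, then 10 μM borrelidin for 1 h at 37 °C. Lysates were read by AlphaScreen for phospho-eIF2α Ser51; percent inhibition was set against borrelidin-only wells.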

Sequence of GCN2 kinase (Q9P2K8 whole entry): as above

| SMILES | Ki [1] | IC50 [2] |
| --- | --- | --- |
| CC1CC(CNS(C)(=O)=O)CN(c2cc(-c3cnc4ccc(C(F)F)nn34)ncn2)C1 (stereo not shown) [II-398, N-((1-(6-(6-(Difluoromethyl)imidazo[1,2-b]pyridazin-3-yl)pyrimidin-4-yl)-5-methylpiperidin-3-yl)methyl)methanesulfonamide] | 0.01 to 1 µM | 0.5 to 5 µM |
| NC(=O)C1CCN(c2cc(-c3cnc4ccc(C(F)F)nn34)ncn2)C1 (stereo not shown) [II-399, 1-(6-(6-(Difluoromethyl)imidazo[1,2-b]pyridazin-3-yl)pyrimidin-4-yl)pyrrolidine-3-carboxamide] | 0.01 to 1 µM | > 5 µM |
| CC1(C)COCCN1c1cc(-c2cnc3ccc(C(F)F)nn23)ncn1 [II-402, 4-(6-(6-(Difluoromethyl)imidazo[1,2-b]pyridazin-3-yl)pyrimidin-4-yl)-3,3-dimethylmorpholine] | 0.01 to 1 µM | > 5 µM |
| CS(C)(=O)=NC[C@@H]1CN(c2cc(-c3cnc4ccc(C(F)(F)F)nn34)ncn2)CCO1 [II-406, (S)-Dimethyl(((4-(6-(6-(trifluoromethyl)imidazo[1,2-b]pyridazin-3-yl)pyrimidin-4-yl)morpholin-2-yl)methyl)imino)-λ^6-sulfanone] | > 1 µM | > 5 µM |
| CS(C)(=O)=NC1CCCN(c2cc(-c3cnc4ccc(C(F)F)nn34)ncn2)C1 (stereo not shown) [II-408, ((1-(6-(6-(Difluoromethyl)imidazo[1,2-b]pyridazin-3-yl)pyrimidin-4-yl)piperidin-3-yl)imino)dimethyl-λ^6-sulfanone] | 0.01 to 1 µM | 0.5 to 5 µM |
| CC1CN(c2cc(-c3cnc4ccc(C(F)F)nn34)ncn2)CC(CNS(C)(=O)=O)N1 (stereo not shown) [II-411] | 0.01 to 1 µM | 0.5 to 5 µM |
| NS(=O)(=O)NCC1CCN(c2cc(-c3cnc4ccc(C(F)F)nn34)ncn2)C1 (stereo not shown) [II-415, 1-((1-(6-(6-(Difluoromethyl)imidazo[1,2-b]pyridazin-3-yl)pyrimidin-4-yl)pyrrolidin-3-yl)methyl)sulfuric diamide] | 0.01 to 1 µM | > 5 µM |

The remaining lines, values ahead:

| Ki [1] | IC50 [2] | SMILES |
| --- | --- | --- |
| 0.01 to 1 µM | > 5 µM | FC(F)c1ccc2ncc(-c3cc(N4CCOCC45CC5)ncn3)n2n1 [II-400, 4-(6-(6-(Difluoromethyl)imidazo[1,2-b]pyridazin-3-yl)pyrimidin-4-yl)-7-oxa-4-azaspiro[2.5]octane] |
| < 0.01 µM | < 0.5 µM | CC1(C)CN(c2cc(-c3cnc4ccc(C(F)F)nn34)ncn2)C[C@@H](CNS(C)(=O)=O)O1 [II-403, (S)—N-((4-(6-(6-(Difluoromethyl)imidazo[1,2-b]pyridazin-3-yl)pyrimidin-4-yl)-6,6-dimethylmorpholin-2-yl)methyl)methanesulfonamide] |
| 0.01 to 1 µM | > 5 µM | CS(C)(=O)=NC1CCCN(c2cc(-c3cnc4ccc(C(F)(F)F)nn34)ncn2)C1 (stereo not shown) [II-407, Dimethyl((1-(6-(6-(trifluoromethyl)imidazo[1,2-b]pyridazin-3-yl)pyrimidin-4-yl)piperidin-3-yl)imino)-λ^6-sulfanone] |
| 0.01 to 1 µM | > 5 µM | NCC1CCN(c2cc(-c3cnc4ccc(C(F)F)nn34)ncn2)C1 (stereo not shown) [II-409, (1-(6-(6-(Difluoromethyl)imidazo[1,2-b]pyridazin-3-yl)pyrimidin-4-yl)pyrrolidin-3-yl)methanamine] |
| 0.01 to 1 µM | 0.5 to 5 µM | CN1CCN(c2cc(-c3cnc4ccc(C(F)F)nn34)ncn2)C[C@H]1CNS(C)(=O)=O [II-410] |
| 0.01 to 1 µM | 0.5 to 5 µM | CC1(NS(C)(=O)=O)CCCN(c2cc(-c3cnc4ccc(C(F)F)nn34)ncn2)C1 (stereo not shown) [II-412, N-(1-(6-(6-(Difluoromethyl)imidazo[1,2-b]pyridazin-3-yl)pyrimidin-4-yl)-3-methylpiperidin-3-yl)methanesulfonamide] |
| 0.01 to 1 µM | 0.5 to 5 µM | CC1CN(c2cc(-c3cnc4ccc(C(F)F)nn34)ncn2)CC(CNS(C)(=O)=O)N1C (stereo not shown) [II-418, N-((4-(6-(6-(Difluoromethyl)imidazo[1,2-b]pyridazin-3-yl)pyrimidin-4-yl)-1,6-dimethylpiperazin-2-yl)methyl)methanesulfonamide] |
